Assay results reported in patent publication EP4644383A1 (Jiangsu Yahong Meditech Co., Ltd., priority 2022, dated 2024).
Where two headings read alike, the source gives them in different places.

Tests used:
FGFR4 = biological target: T1, FGFR4 (Homo sapiens, UniProt P22455); assay: FGFR4 kinase activity inhibition assay (LanthaScreen TR-FRET); format: biochemical
T1 construct: FGFR4's cytoplasmic domain [460-802 (terminal) amino acids]; purchased Carna 08-136
Method in brief: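 GST-tagged cytoplasmic domains (FGFR2 aa 399-821; FGFR4 aa 460-802) were preincubated 10 min at 23 °C with compound (top 1 µM, threefold dilutions). Then 28 nM fluorescein-poly GT and 28 µM ATP were added for 30 min at 23 °C in HEPES pH 7.5 buffer. Tb-PY20 TR-FRET 520/495 ratio gave % inhibition versus DMSO and no-enzyme controls.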

[1] = tested on: Ba/F3-FGFR3-BAIAP2L1 cells; assay: Inhibition of proliferation activity of Ba/F3-FGFR3-BAIAP2L1 cells (CellTiter-Glo); format: cell-based; conditions: for IC50: read-out: IC50 (nM) Ba/F3-FGFR3-BAIAP2L1; for Selectivity (X) FGFR1/FGFR3: ratio of IC50 Ba/F3-BCR-FGFR1 to IC50 Ba/F3-FGFR3-BAIAP2L1
Procedure: The present experiment used CellTiter-Glo® Luminescent Cell Viability Assay (Promega: G7573) kit, which was a homogeneous cell viability detection method and determined the cell viability of cultured cells by quantifying ATP. • ① Ba/F3-BCR-FGFR1 or Ba/F3-FGFR3-BAIAP2L1 cells were cultured in 1640 complete medium (Gibco: 11879020) (10% FBS (Gibco: 10091-148)+1% Pen Strep (Gibco: 15140122)) under the condition of 37°C and 5% CO2. • (2) The cells in logarithmic growth phase were harvested and counted using a […]. The trypan blue exclusion method was used to detect cell viability to ensure the cell viability was above 90%. • ③ The cell density was adjusted using 1640 complete medium, and then, the cells were seeded into a 96-well cell culture plate at 90 µL/well with a total of 2000 cells. • ④ A 10-fold drug solution was prepared starting from a maximum drug concentration of 10 µM and 4-fold serially diluted into10 concentrations. […] The luminescence values were read to collect the data. • ⑩ The data were analyzed using XLFit excel plugin version 5.5.0.5, and fitted with non-linear S-curve regression to obtain the dose-response curves and thus calculate the IC50 values. Y = Bottom + (Top-Bottom)/((1+(IC50/X))^(∧) HillSlope [formula]
"Top" refers to the maximum response, "Bottom" refers to the minimum response, and "HillSlope" refers to the slope of the curve.
"Max" represents the average value of the cell control+DMSO, and "Min" represents the average value of the medium control+DMSO.

FGFR2 = biological target: T2, FGFR2 (Homo sapiens, UniProt P21802); assay: FGFR2 kinase activity inhibition assay (LanthaScreen TR-FRET); format: biochemical
T2 construct: FGFR2's cytoplasmic domain [399-821 (terminal) amino acids]; purchased Carna 08-134
T2 sequence (P21802 399-821): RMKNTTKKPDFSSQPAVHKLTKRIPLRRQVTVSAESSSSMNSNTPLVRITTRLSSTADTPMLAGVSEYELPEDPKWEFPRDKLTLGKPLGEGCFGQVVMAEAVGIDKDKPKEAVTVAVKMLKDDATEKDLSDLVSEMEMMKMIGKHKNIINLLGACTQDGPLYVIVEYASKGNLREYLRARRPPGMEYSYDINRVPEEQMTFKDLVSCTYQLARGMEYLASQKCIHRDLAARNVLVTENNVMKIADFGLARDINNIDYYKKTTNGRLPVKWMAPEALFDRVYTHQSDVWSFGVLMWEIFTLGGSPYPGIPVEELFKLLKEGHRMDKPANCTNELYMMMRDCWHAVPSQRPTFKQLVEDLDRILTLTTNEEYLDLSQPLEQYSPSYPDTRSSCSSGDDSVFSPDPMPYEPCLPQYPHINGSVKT
Method in brief: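 GST-fused FGFR2 cytoplasmic domain (aa 399-821) was run as in the FGFR1 protocol: preincubated 10 min at 23 °C with compound (3-fold series from 1 µM) in 50 mM HEPES pH 7.5, 10 mM MgCl2, 4 mM DTT, 1% DMSO. A 2× mix of 28 nM fluorescein-poly GT/28 µM ATP then reacted 30 min. Tb-PY20/EDTA quench preceded the TR-FRET 520/495 read.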

[2] = FGFR4 kinase, TR-FRET, read-out: IC50 (nM) FGFR4
[3] = FGFR2 kinase, TR-FRET, read-out: IC50 (nM) FGFR2
[4] = Ba/F3-FGFR3-BAIAP2L1 cells, 72 hours, CTG

T1 sequence (P22455 460-802): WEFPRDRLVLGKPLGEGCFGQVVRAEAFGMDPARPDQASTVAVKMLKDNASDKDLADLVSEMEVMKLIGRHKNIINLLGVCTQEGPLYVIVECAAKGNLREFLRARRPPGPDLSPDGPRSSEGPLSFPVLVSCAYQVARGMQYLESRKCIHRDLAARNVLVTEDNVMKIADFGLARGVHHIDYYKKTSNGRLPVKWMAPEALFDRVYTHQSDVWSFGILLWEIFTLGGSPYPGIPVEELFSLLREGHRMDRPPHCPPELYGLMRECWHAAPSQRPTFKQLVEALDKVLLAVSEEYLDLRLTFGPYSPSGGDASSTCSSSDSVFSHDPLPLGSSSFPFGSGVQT

SMILES	IC50 (FGFR4; [2])	IC50 (FGFR2; [3])	IC50 [1, 4]	IC50 ([1]; 72 h)	Selectivity (X) FGFR1/FGFR3 [1]	IC50 (FGFR2)	IC50 (FGFR4)
C[C@@H](Oc1ccc2[nH]nc(-c3ccc(S(C)(=N)=O)nc3)c2c1)c1c(Cl)cncc1Cl (stereo partly drawn) [Comparative Example 85, (5-(5-((R)-1-(3,5-dichloropyridin-4-yl)ethoxy)-1H-indazol-3-yl)pyridin-2-yl)(imino)(methyl)-sulfanone, reference compound]	10 to 100 nM	–	–	5.4 nM	–	–	–
C[C@@H](Oc1cc(F)c2[nH]nc(-c3cnn(CCN4CCOCC4)c3)c2c1)c1c(Cl)cncc1Cl [Example 12, (R)-4-(2-(4-(5-(1-(3,5-dichloropyridin-4-yl)ethoxy)-7-fluoro-1H-indazol-3-yl)-1H-pyrazol-1-yl)ethyl)morph oline]	10 to 100 nM	1 to 10 nM	4.6 nM	–	129 X	–	–
C[C@@H](Oc1ccc2[nH]nc(-c3cnn(C)c3)c2n1)c1c(Cl)cncc1Cl [Example 29, (R)-5-(1-(3,5-dichloropyridin-4-yl)ethoxy)-3-(1-methyl-1H-pyrazol-4-yl)-1H-pyrazolo[4,3-b]pyridine]	1 to 10 nM	< 1 nM	0.3 nM	–	127 X	–	–
C[C@@H](Oc1ccc2[nH]nc(-c3cnn(CCN4CCS(=O)(=O)CC4)c3)c2n1)c1c(Cl)cncc1Cl [Example 55, (R)-4-(2-(4-(5-(1-(3,5-dichloropyridin-4-yl)ethoxy)-1H-pyrazolo[4,3-b]pyridin-3-yl)-1H-pyrazol-1-yl)ethyl)thiomorph oline 1,1-dioxide]	–	–	0.7 nM	–	126 X	–	–
CC(Oc1ccc2[nH]nc(-c3cnn(C)c3)c2c1)c1cccc2ncccc12 (centres unmarked) [Example 88, 5-(1-((3-(1-methyl-1H-pyrazol-4-yl)-1H-indazol-5-yl)oxy)ethyl)quin oline]	10 to 100 nM	1 to 10 nM	19 nM	–	180 X	–	–
CC(Oc1ccc2[nH]nc(-c3cnn(C)c3)c2c1)c1cccc2nccnc12 (centres unmarked) [Example 92, 5-(1-((3-(1-methyl-1H-pyrazol-4-yl)-1H-indazol-5-yl)oxy)ethyl)quin oxaline]	1 to 10 nM	1 to 10 nM	2.8 nM	–	35 X	–	–
Cc1ccc2ncccc2c1C(C)Oc1ccc2[nH]nc(-c3cnn(C)c3)c2c1 (centres unmarked) [Example 95, 6-methyl-5-(1-((3-(1-methyl-1H-pyrazol-4-yl)-1H-indazol-5-yl)oxy)ethyl)quinolinee]	–	–	8 nM	–	51 X	1 to 10 nM	10 to 100 nM
CC(Oc1ccc2[nH]nc(-c3cnn(C)c3)c2c1)c1cccn2ncnc12 (centres unmarked) [Example 101, 8-(1-((3-(1-methyl-1H-pyrazol-4-yl)-1H-indazol-5-yl)oxy)ethyl)-[1,2,4]triazolo[1,5-a]pyridine]	–	–	10.6 nM	–	23 X	–	–
COCC(=O)N1CC(n2cc(-c3n[nH]c4ccc(OC(C)c5cccc6nccnc56)cc34)cn2)C1 (centres unmarked) [Example 188, 2-methoxy-1-(3-(4-(5-(1-(quinoxalin-5-yl)ethoxy)-1H-indazol-3-yl)-1H-pyrazol-1-yl)azetidin-1-yl)ethan-1-one]	10 to 100 nM	1 to 10 nM	3.1 nM	–	91 X	–	–
CC(Oc1ccc2[nH]nc(-c3cnn(C4CN(C(=O)C(C)(C)O)C4)c3)c2c1)c1cccc2nccnc12 (centres unmarked) [Example 190, 2-hydroxy-2-methyl-1-(3-(4-(5-(1-(quinoxalin-5-yl)ethoxy)-1H-indazol-3-yl)-1H-pyrazol-1-yl)azetidin-1-yl)propan-1-one]	10 to 100 nM	1 to 10 nM	3.8 nM	–	113 X	–	–
CC(=O)N1CC(n2cc(-c3n[nH]c4ccc(OC(C)c5cccc6nccnc56)cc34)cn2)C1 (centres unmarked) [Example 218, 1-(3-(4-(5-(1-(quinoxalin-5-yl)ethoxy)-1H-indazol-3-yl)-1H-pyrazol-1-yl)azetidin-1-yl)ethan-1-one]	10 to 100 nM	1 to 10 nM	8.4 nM	–	53 X	–	–
CC(Oc1cc2c(-c3cnn(C)c3)n[nH]c2cc1F)c1cc(Cl)cc2nccnc12 (centres unmarked) [Example 227, 7-chloro-5-(1-((6-fluoro-3-(1-methyl-1H-pyrazol-4-yl)-1H-indazol-5-yl)oxy)ethyl)qu inoxaline]	–	–	3.1 nM	–	126 X	–	–
[2H]C([2H])([2H])c1cc2nccnc2c(C(C)Oc2ccc3[nH]nc(-c4cnn(C)c4)c3c2)n1 (centres unmarked) [Example 241]	–	–	0.8 nM	–	76 X	< 1 nM	1 to 10 nM

Continued by falling IC50 [1, 4], values first:

IC50 (FGFR4; [2])	IC50 (FGFR2; [3])	IC50 [1, 4]	SMILES	IC50 ([1]; 72 h)	Selectivity (X) FGFR1/FGFR3 [1]	IC50 (FGFR2)	IC50 (FGFR4)
10 to 100 nM	1 to 10 nM	12.9 nM	CC(Oc1ccc2[nH]nc(-c3cnn(C)c3)c2c1)c1c(CF)ccc2ncccc12 (centres unmarked) [Example 130, 6-(fluoromethyl)-5-(1-((3-(1-methyl-1H-pyrazol-4-yl)-1H-indazol-5-yl)oxy)ethyl)q uinoline]	–	–	–	–
> 100 nM	1 to 10 nM	4.8 nM	CC(Oc1ccc2[nH]nc(-c3cnn(C)c3)c2c1)c1c(C(F)F)ccc2ncccc12 (centres unmarked) [Example 127, 6-(difluoromethyl)-5-(1-((3-(1-methyl-1H-pyrazol-4-yl)-1H-indazol-5-yl)oxy)ethyl)quinoline]	–	195 X	–	–
10 to 100 nM	1 to 10 nM	3.4 nM	CC(Oc1ccc2[nH]nc(-c3cnn(C)c3)c2c1)c1cc(Cl)cc2nccnc12 (centres unmarked) [Example 136, 7-chloro-5-(1-((3-(1-methyl-1H-pyrazol-4-yl)-1H-indazol-5-yl)oxy)ethyl)qu inoxaline]	–	111 X	–	–
–	–	1.2 nM	C[C@@H](Oc1ccc2[nH]nc(-c3cnn(CCN4CCN(C)C(=O)C4)c3)c2n1)c1c(Cl)cncc1Cl [Example 54, (R)-4-(2-(4-(5-(1-(3,5-dichloropyridin-4-yl)ethoxy)-1H-pyrazolo[4,3-b]pyridin-3-yl)-1H-pyrazol-1-yl)ethyl)-1-methylpiperazin-2-one]	–	147 X	–	–
10 to 100 nM	1 to 10 nM	0.9 nM	CC(Oc1ccc2[nH]nc(-c3cnn(C)c3)c2c1)c1nc(C(F)F)cc2nccnc12 (centres unmarked) [Example 236, 7-(difluoromethyl)-5-(1-((3-(1-methyl-1H-pyrazol-4-yl)-1H-indazol-5-yl)oxy)ethyl)pyridino[3,4-b]pyrazine]	–	182 X	–	–
10 to 100 nM	1 to 10 nM	0.4 nM	Cc1cc2nccnc2c(C(C)Oc2ccc3[nH]nc(-c4cnn(C)c4)c3c2)n1 (centres unmarked) [Example 183, 7-methyl-5-(1-((3-(1-methyl-1H-pyrazol-4-yl)-1H-indazol-5-yl)oxy)ethyl)pyridino [3,4-b]pyrazine]	–	139 X	–	–
